One compound from PMC9396645 (Frontiers in Chemistry, 2022) can be followed below.

This series concerns C4-2 tumor bearing BALB/c nu/nu mice. The series is described as follows: Biodistribution (organ distribution) in C4-2 tumor-bearing mice. It is filed as in vivo, mouse. The text has this: Athymic male nude mice (BALB/c nu/nu) were purchased from Charles River at 4‒5 weeks of age (19–23 g). The mice were kept under pathogen-free conditions for 1 week prior to the study. The mice had free access to water and food and were housed with a 12-h/12-h light/dark cycle. The xenografts required for positron emission tomography (PET) imaging and biodistribution studies were obtained by inoculation of 5 × 10^7 C4-2 cells in 50% Matrigel in Opti-MEM I (1 ×) medium. For this purpose, the mice were anesthetized with 2% sevoflurane, and inoculation was performed subcutaneously on the right trunk. When the size of the tumor was approximately 1 cm^3, the studies were performed.
Based on the results of the PET imaging, ^68Ga-CA028 and ^68Ga-CA030, the most promising compounds, were chosen for biodistribution studies in C4-2 tumor-bearing mice. The labeled compound (0.05 nmol, 20 MBq) was administered to the mice via tail vein injection. Animals were sacrificed and organs were harvested at the following time points: 20 min, 1, 2, and 4 h p.i. The organs were dissected and weighed, the activity was measured with a γ-counter, and the % ID/g was calculated.

Each structure is given as a SMILES string.

Where the note is “C4-2 tumor, 20 min after injection, 0.05 nmol, 20 MBq”, `O=C([O-])CN1CCN(CC(=O)[O-])CCN(Cc2ccc(C(=O)NCC3CCC(C(=O)NC(Cc4ccc5ccccc5c4)C(=O)NCCCCC(NC(=O)NC(CCC(=O)O)C(=O)O)C(=O)O)CC3)cc2)CCN(CC(=O)[O-])CC1.[68Ga+3]` (stereo not shown) [^68Ga-CA028] gave a tumor uptake of 12.53 ± 0.45 %ID/g. For the same compound, the “tumor uptake with blockade” value (C4-2 tumor, 1 h p.i., co-injection of non-labeled PSMA-617 2 mg/kg) worked out at 1.31 ± 0.34 %ID/g. For the setting “kidneys, 1 h p.i., 0.05 nmol, 20 MBq”, the kidney uptake was 15.58 ± 2.79 %ID/g. The “kidney uptake with blockade” value (kidneys, 1 h p.i., co-injection of non-labeled PSMA-617 2 mg/kg) turned out to be 2.37 ± 0.52 %ID/g.
